The values below come from US9315475B2 (MERCK SHARP & DOHME CORP., priority 2011, dated 2016).

The target in the test is T1, wildtype HIV-1 protease (Human immunodeficiency virus type 1 group M subtype B, UniProt P04585).
T1 construct: the wildtype HIV-1 protease (which was expressed in Escherichia coli); made in house; host or cells: Escherichia coli
Kind of test: Assay for inhibition of microbial expressed HIV protease (Pepcleav). Format: biochemical. The note with it: wild type HIV-1 protease expressed in E. coli, peptide substrate, pH 5.5; mean of at least two independent experiments; read-out: Pepcleav. The gist of the method: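 Cleavage of 400 μM peptide substrate Val-Ser-Gln-Asn-(βnaphthyl)Ala-Pro-Ile-Val by 20 pM wild-type enzyme (E. coli-expressed) ran 1 h at 30 °C after 30 min inhibitor preincubation, pH 5.5 acetate buffer. Inhibition derived from product peak area by C18 LC with multiple-reaction-monitoring MS after formic acid quench.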
Regarding `COC(=O)N[C@H](C(=O)Nc1ccccc1CC[C@@H]1CN[C@H](CNC(=O)c2c(C)cccc2C)CO1)C(c1ccccc1)c1ccccc1` [Example 57, methyl N-[(1S)-1-benzhydryl-2-[[2-[2-[(2R,5R)-5-[[(2,6-dimethylbenzoyl)amino]methyl]morpholin-2-yl]ethyl]phenyl]amino]-2-oxo-ethyl]carbamate], the IC50 amounted to 50 nM.
Then `COC(=O)N[C@H](C(=O)Nc1ccccc1CC[C@@H]1CN[C@H](CNC(=O)c2[nH]c(=O)ccc2F)CO1)C(c1ccccc1)c1ccccc1` [Example 58, methyl N-[(1S)-1-benzhydryl-2-[[2-[2-[(2R,5R)-5-[[(3-fluoro-6-oxo-1H-pyridine-2-carbonyl)amino]methyl]morpholin-4-ium-2-yl]ethyl]phenyl]amino]-2-oxo-ethyl]carbamate], with 66 nM; and `COC(=O)N[C@H](C(=O)Nc1ccccc1CC[C@@H]1CN[C@H](CNC(=O)c2cc3ncccn3n2)CO1)C(c1ccccc1)c1ccccc1` [Example 59, methyl N-[(1S)-1-benzhydryl-2-oxo-2-[[2-[2-[(2R,5R)-5-[(pyrazolo[1,5-a]pyrimidine-2-carbonylamino)methyl]morpholin-2-yl]ethyl]phenyl]amino]ethyl] carbamate], with 71 nM; and `COC(=O)N[C@H](C(=O)Nc1ccccc1CC[C@@H]1CN[C@H](CNC(=O)c2cc(-c3ccccn3)[nH]n2)CO1)C(c1ccccc1)c1ccccc1` [Example 60, methyl N-[(1S)-1-benzhydryl-2-oxo-2-[[2-[2-[(2R,5R)-5-[[[5-(2-pyridyl)-1H-pyrazole-3-carbonyl]amino]methyl]morpholin-2-yl]ethyl]phenyl]amino]ethyl] carbamate], with 72 nM.
Consider `COC(=O)N[C@H](C(=O)Nc1ccccc1CC[C@@H]1CN[C@H](CO)CO1)C(c1ccccc1)c1ccccc1` [Example 61, N-(2-{2-[(2R,5R)-5-(hydroxymethyl)morpholin-2-yl]ethyl}phenyl)-Nα-(methoxycarbonyl)-β-phenyl-L-phenylalaninamide], for which the IC50 stood at 160 nM.
Take `COC(=O)N[C@H](C(=O)Nc1ccccc1CC[C@@H]1CN[C@H](CSc2ccccc2)CO1)C(c1ccccc1)c1ccccc1` [Example 62, Nα-(methoxycarbonyl)-β-phenyl-N-[2-(2-{(2R,5S)-5-[(phenylsulfanyl)methyl]morpholin-2-yl}ethyl)phenyl]-L-phenylalaninamide]: the IC50 was determined as 130 nM.
With `COC(=O)N[C@H](C(=O)Nc1ccccc1CC[C@@H]1CN[C@H](COc2ccccc2)CO1)C(c1ccccc1)c1ccccc1` [Example 63, Nα-(methoxycarbonyl)-N-(2-{2-[(2R,5S)-5-(phenoxymethyl)morpholin-2-yl]ethyl}phenyl)-β-phenyl-L-phenylalaninamide], the IC50 was 49 nM.
Take `COC(=O)N[C@H](C(=O)Nc1ccccc1CC[C@@H]1CN[C@H](Cn2cc(-c3ccccc3)nn2)CO1)C(c1ccccc1)c1ccccc1` [Example 64, Nα-(methoxycarbonyl)-β-phenyl-N-[2-(2-{(2R,5R)-5-[(4-phenyl-1H-1,2,3-triazol-1-yl)methyl]morpholin-2-yl}ethyl)phenyl]-L-phenylalaninamide]: the IC50 was found to be 56 nM.
As for `COC(=O)N[C@H](C(=O)Nc1ccccc1CC[C@@H]1CN[C@H](Cn2cc([Si](C)(C)C)nn2)CO1)C(c1ccccc1)c1ccccc1` [Example 65, Nα-(methoxycarbonyl)-β-phenyl-N-(2-{2-[(2R,5R)-5-{[4-(trimethylsilyl)-1H-1,2,3-triazol-1-yl]methyl}morpholin-2-yl]ethyl}phenyl)-L-phenylalaninamide], the figure is 43 nM; as for `COC(=O)N[C@H](C(=O)Nc1ccccc1CC[C@@H]1CN[C@H](Cn2ccnn2)CO1)C(c1ccccc1)c1ccccc1` [Example 66, Nα-(methoxycarbonyl)-β-phenyl-N-(2-{2-[(2R,5R)-5-(1H-1,2,3-triazol-1-ylmethyl)morpholin-2-yl]ethyl}phenyl)-L-phenylalaninamide], 100 nM.
Then `COC(=O)N[C@H](C(=O)Nc1ccccc1CC[C@@H]1CN[C@H](CCCc2ccccc2)CO1)C(c1ccccc1)c1ccccc1` [Example 67, methyl{(1S)-1-(diphenylmethyl)-2-oxo-2-[(2-{2-[(2R,5R)-5-(3-phenylpropyl)morpholin-2-yl]ethyl}phenyl)amino]ethyl}carbamate], with 26 nM; and `COC(=O)N[C@H](C(=O)Nc1ccccc1CC[C@@H]1CO[C@H](CCc2ccccc2NC(=O)[C@@H](NC(=O)OC)C(c2ccccc2)c2ccccc2)CN1)C(c1ccccc1)c1ccccc1` [Example 68, dimethyl [(2R,5R)-morpholine-2,5-diylbis {ethane-2,1-diylbenzene-2,1-diylimino[(2S)-1-oxo-3,3-diphenylpropane-1,2-diyl]}]biscarbamate], with 0.03 nM.
Then `COC(=O)NCC(=O)Nc1ccccc1CC[C@@H]1CO[C@H](CCc2ccccc2NC(=O)[C@@H](NC(=O)OC)C(c2ccccc2)c2ccccc2)CN1` [Example 69, methyl N-[(1S)-1-benzhydryl-2-[[2-[2-[(2R,5R)-5-[2-[2-[[2-(methoxycarbonylamino)acetyl]amino]phenyl]ethyl]morpholin-2-yl]ethyl]phenyl]amino]-2-oxo-ethyl]carbamate], with 3.4 nM; and `COCC(=O)Nc1ccccc1CC[C@@H]1CO[C@H](CCc2ccccc2NC(=O)[C@@H](NC(=O)OC)C(c2ccccc2)c2ccccc2)CN1` [Example 70, methyl N-[(1S)-1-benzhydryl-2-[[2-[2-[(2R,5R)-5-[2-[2-[(2-methoxyacetyl)amino]phenyl]ethyl]morpholin-2-yl]ethyl]phenyl]amino]-2-oxo-ethyl]carbamate], with 24 nM; and `COC(=O)N[C@H](C(=O)Nc1ccccc1CC[C@@H]1CN[C@H](CCc2ccccc2NC(=O)CCc2ccccc2)CO1)C(c1ccccc1)c1ccccc1` [Example 71, methyl N-[(1S)-1-benzhydryl-2-oxo-2-[[2-[2-[(2R,5R)-5-[2-[2-(3-phenylpropanoylamino)phenyl]ethyl]morpholin-2-yl]ethyl]phenyl]amino]ethyl]carbamate], with 1.3 nM.
On to `COC(=O)N[C@H](C(=O)Nc1ccccc1CC[C@@H]1CN[C@H](CCc2ccccc2N)CO1)C(c1ccccc1)c1ccccc1` [Example 72, methyl N-[(1S)-1-[[2-[2-[(2R,5R)-5-[2-(2-aminophenyl)ethyl]morpholin-2-yl]ethyl]phenyl]carbamoyl]-2,2-diphenyl-ethyl]carbamate], for which the IC50 came out at 14 nM.
As for `COC(=O)N[C@H](C(=O)Nc1ccccc1CC[C@@H]1CN[C@H](CCc2ccccc2NS(=O)(=O)Cc2ccccc2)CO1)C(c1ccccc1)c1ccccc1` [Example 73, N-(2-{2-[(2R,5R)-5-(2-{2-[(benzylsulfonyl)amino]phenyl}ethyl)morpholin-2-yl]ethyl}phenyl)-Nα-(methoxycarbonyl)-β-phenyl-L-phenylalaninamide], the IC50 is 21 nM.
Then `COC(=O)N[C@H](C(=O)Nc1ccccc1CC[C@@H]1CN[C@H](CCc2ccccc2NC(=O)OCc2ccccc2)CO1)C(c1ccccc1)c1ccccc1` [Example 74, methyl N-[(1S)-1-benzhydryl-2-[[2-[2-[(2R,5R)-5-[2-(2-benzyloxycarbonylamino-phenyl)ethyl]morpholin-2-yl]ethyl]phenyl]amino]-2-oxo-ethyl]carbamate], with 10 nM; and `COC(=O)N[C@H](C(=O)Nc1ccccc1CC[C@@H]1CN[C@H](CCc2ccccc2NC(=O)NCc2ccccc2)CO1)C(c1ccccc1)c1ccccc1` [Example 75, methyl N-[(1S)-1-benzhydryl-2-[[2-[2-[(2R,5R)-5-[2-[2-(benzylcarbamoylamino)phenyl]ethyl]morpholin-2-yl]ethyl]phenyl]amino]-2-oxo-ethyl]carbamate], with 4.1 nM.
Then `COC(=O)Nc1ccccc1CC[C@@H]1CO[C@H](CCc2ccccc2NC(=O)[C@@H](NC(=O)OC)C(c2ccccc2)c2ccccc2)CN1` [Example 76, methyl N-[(1S)-1-benzhydryl-2-[[2-[2-[(2R,5R)-5-[2-[2-(methoxy-carbonylamino)phenyl]ethyl]morpholin-2-yl]ethyl]phenyl]amino]-2-oxo-ethyl]carbamate], with 52 nM.
Consider `CCNC(=O)Nc1ccccc1CC[C@@H]1CO[C@H](CCc2ccccc2NC(=O)[C@@H](NC(=O)OC)C(c2ccccc2)c2ccccc2)CN1` [Example 77], for which the IC50 worked out at 15 nM.
With `COC(=O)N[C@H](C(=O)Nc1ccccc1CC(F)[C@@H]1CN[C@H](COC(=O)NCc2ccc(F)cc2)CO1)C(c1ccccc1)c1ccccc1` (stereo partly drawn) [Example 78, N-(2-{2-fluoro-2-[(2S,5S)-5-({[(4-fluorobenzyl)carbamoyl]oxy}methyl)morpholin-2-yl]ethyl}phenyl)-Nα-(methoxycarbonyl)-β-phenyl-L-phenylalaninamide], the IC50 was 59 nM.
Then `COC(=O)N[C@H](C(=O)Nc1ccccc1CC[C@@H]1CN[C@H](CNC(=O)OC2CCOC2)CO1)C(c1ccccc1)c1ccccc1` (stereo partly drawn) [Example 84, Nα-(methoxycarbonyl)-β-phenyl-N-(2-{2-[(2R,5R)-5-({[(tetrahydrofuran-3-yloxy)carbonyl]amino}methyl)morpholin-2-yl]ethyl}phenyl)-L-phenylalaninamide], with 670 nM; and `NC(=O)OC[C@@H]1CO[C@H](CCc2c(F)cncc2NC(=O)[C@@H](N)C(c2ccc(F)cc2)c2ccc(F)cc2)CN1` [Example 119, N-[4-(2-{(2R,5S)-5-[(Carbamoyloxy)methyl]morpholin-2-yl}ethyl)-5-fluoropyridin-3-yl]-4-fluoro-β-(4-fluorophenyl)-L-phenylalaninamide], with 6.9 nM.
